{"source": "patent US20150284399A1", "about": "“PROCESSES FOR THE PREPARATION OF S1P1 RECEPTOR MODULATORS AND CRYSTALLINE FORMS THEREOF” (Arena Pharmaceuticals, Inc., priority 2010, published 2015)", "key": {"[1]": {"tested_on": "rat model for autoimmune myocarditis", "conditions": "cited from earlier work"}, "[2]": {"tested_on": "rat cardiac allograft model", "conditions": "cited from earlier work"}, "rat skin allograft model": {"tested_on": "rat skin allograft model", "conditions": "monotherapy; cited from earlier work"}, "[3]": {"tested_on": "rat renal allograft model", "conditions": "combination with mycophenolate mofetil (MMF); cited from earlier work"}, "[4]": {"assay": "Dynamic moisture sorption (DMS)", "format": "physicochemical", "conditions": "crystalline form", "description": "Samples are prepared for dynamic moisture-sorption analysis by placing ˜5 mg to ˜20 mg of compound in a tarred sample holder on the VTI balance. The instrument is a dynamic moisture-sorption analyzer, VTI Corporation, SGA-100. A drying step is run at 40° C. and ˜1% RH for 1 h. The isotherm temperature is 25° C. A % weight change over 10 min (5 weight readings) of dm/dt=0.010 or 2 h, whichever occurs first, is required before continuing to the next step. The water content of the sample equilibrated as described above was determined from 30% RH to 90% RH and then back down to 10% RH."}, "[5]": {"tested_on": "type I diabetic vascular endothelium", "conditions": "Whetzel et al. 2006; cited from earlier work"}, "vasculature": {"tested_on": "vasculature", "conditions": "Bolick et al. 2005; cited from earlier work"}, "Male BALB/c mice": {"tested_on": "Male BALB/c mice", "assay": "Mouse Peripheral Lymphocyte Lowering (PLL) assay", "format": "in vivo", "conditions": "0.300 mg/kg oral dose in 0.5% methyl cellulose in water; 5 hours post-dose; vs vehicle; FIG. 15", "description": "Male BALB/c mice (Charles River Laboratories, Wilmington, Mass.) were housed four per cage and maintained in a humidity-controlled (40 to 60%) and temperature-controlled (68 to 72° F.) facility on a 12 h: 12 h light/dark cycle (lights on at 6:30 am) with free access to food (Harlan Teklad, Orange, Calif., Rodent Diet 8604) and water. Mice were allowed (approximately) one week of habituation to the animal facility before testing.\nMice were given a 0.300 mg/kg oral dose of (R)-2-(9-chloro-7-(4-isopropoxy-3-(trifluoromethyl)benzyloxy)-2,3-dihydro-1H-pyrrolo[1,2-a]indol-1-yl)acetic acid L-lysine salt or dosing vehicle (0.5% methyl cellulose in water) in a total volume of 10 mL/kg. Peripheral blood samples were collected at 5 hours post-dose. The mice were anesthetized with isoflurane and blood was collected via cardiac puncture. A complete cell count (CBC), including lymphocyte count, was obtained using a CELL-DYN® 3700 (Abbott Laboratories, Abbott Park, Ill.) instrument. Results are presented in FIG. 15, in which peripheral blood lymphocyte (PBL) count is shown for the 5 hour group."}, "Female C57BL/6 mice": {"tested_on": "Female C57BL/6 mice", "assay": "MOG-induced experimental autoimmune encephalomyelitis (EAE) in mice", "format": "in vivo, mouse", "conditions": "oral, once a day from day 3 until day 21; 0.1, 0.3 and 1.0 mg/kg; vs vehicle; FIG. 17"}, "S1P4 receptor": {"target": "T1, S1P4 receptor (Homo sapiens, UniProt O95977)", "T1 sequence (O95977 1-384)": "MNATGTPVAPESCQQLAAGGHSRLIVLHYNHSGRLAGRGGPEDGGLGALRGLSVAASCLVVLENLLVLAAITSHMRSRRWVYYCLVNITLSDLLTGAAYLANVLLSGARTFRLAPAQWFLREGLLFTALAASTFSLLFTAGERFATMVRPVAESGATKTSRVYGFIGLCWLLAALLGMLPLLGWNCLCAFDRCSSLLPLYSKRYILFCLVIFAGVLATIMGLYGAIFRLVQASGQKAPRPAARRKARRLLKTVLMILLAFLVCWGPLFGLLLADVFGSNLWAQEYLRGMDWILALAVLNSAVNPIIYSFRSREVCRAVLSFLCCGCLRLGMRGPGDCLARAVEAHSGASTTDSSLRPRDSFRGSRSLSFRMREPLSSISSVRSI", "conditions": "Chiba 2005; cited from earlier work"}, "S1P5 receptor": {"target": "S1P5 receptor (Homo sapiens, UniProt Q9H228)", "sequence (Q9H228 whole entry)": "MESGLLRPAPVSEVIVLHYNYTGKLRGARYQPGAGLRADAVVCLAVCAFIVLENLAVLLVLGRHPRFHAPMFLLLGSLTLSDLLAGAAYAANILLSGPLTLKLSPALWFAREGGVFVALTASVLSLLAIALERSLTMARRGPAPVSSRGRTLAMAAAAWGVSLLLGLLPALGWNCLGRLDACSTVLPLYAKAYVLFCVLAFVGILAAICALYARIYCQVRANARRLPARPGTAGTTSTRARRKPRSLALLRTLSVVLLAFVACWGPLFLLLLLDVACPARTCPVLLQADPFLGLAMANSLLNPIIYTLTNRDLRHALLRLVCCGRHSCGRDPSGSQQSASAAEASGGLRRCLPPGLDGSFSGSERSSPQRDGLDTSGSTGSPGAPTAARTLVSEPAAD", "conditions": "Chiba 2005; cited from earlier work"}, "S1P2 receptor": {"target": "S1P2 receptor (Homo sapiens, UniProt O95136)", "sequence (O95136 whole entry)": "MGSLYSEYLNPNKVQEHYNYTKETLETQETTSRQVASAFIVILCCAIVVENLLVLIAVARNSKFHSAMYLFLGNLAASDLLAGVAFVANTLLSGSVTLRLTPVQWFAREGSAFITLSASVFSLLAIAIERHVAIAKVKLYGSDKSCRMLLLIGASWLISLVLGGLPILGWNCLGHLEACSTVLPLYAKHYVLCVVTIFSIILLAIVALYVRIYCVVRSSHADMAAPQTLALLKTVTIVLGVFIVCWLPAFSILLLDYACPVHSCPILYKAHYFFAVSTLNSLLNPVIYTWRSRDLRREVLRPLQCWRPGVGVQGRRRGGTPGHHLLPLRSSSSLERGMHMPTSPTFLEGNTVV", "conditions": "Chiba 2005; cited from earlier work"}, "keratinocytes": {"tested_on": "keratinocytes", "conditions": "Kim et al. 2004; cited from earlier work"}, "[6]": {"conditions": "attributed to agonism of the S1P3 receptor; cited from earlier work"}, "[7]": {"conditions": "unlike cyclosporin A, FK506 and RAD; cited from earlier work"}, "human islet cells": {"tested_on": "human islet cells", "conditions": "cited from earlier work"}, "[8]": {"conditions": "organ transplantation; cited from earlier work"}}, "note": "Where two headings read alike, the source gives them in different places."}
{"molecule": "NC(CO)(CO)CCc1ccc(Sc2cccc(OCc3ccccc3)c2)cc1Cl", "note": "[KRP-203]", "values": [{"measurement": "therapeutic efficacy", "setting": "[1]", "result": "therapeutic efficacy"}, {"measurement": "prolonging allograft survival", "setting": "[2]; combination with cyclosporin A", "result": "synergistic combination with cyclosporin A"}, {"measurement": "prolonging allograft survival", "setting": "[2]; combination with mycophenolate mofetil (MMF)", "result": "therapeutic efficacy in combination with mycophenolate mofetil"}, {"measurement": "prolonging allograft survival", "setting": "[2]; monotherapy", "result": "therapeutic efficacy for prolonging allograft survival"}, {"measurement": "prolonging allograft survival", "setting": "rat skin allograft model", "result": "therapeutic efficacy for prolonging allograft survival"}, {"measurement": "prolonging allograft survival", "setting": "[3]", "result": "therapeutic efficacy in combination with mycophenolate mofetil"}]}
{"molecule": "CC(C)Oc1ccc(COc2ccc3c(c2)c(Cl)c2n3CC[C@@H]2CC(=O)[O-])cc1C(F)(F)F.O.[Na+]", "note": "[(R)-2-(9-chloro-7-(4-isopropoxy-3-(trifluoromethyl)benzyloxy)-2,3-dihydro-1H-pyrrolo[1,2-a]indol-1-yl)acetic acid sodium salt hydrate]", "values": [{"measurement": "DMS weight gain at about 90% relative humidity", "setting": "[4]; from about 30% RH to about 90% RH at 25° C.", "result": "FIG. 9: gains about 2.5% weight at about 90% relative humidity"}]}
{"molecule": "O=C(O)CCNCc1ccc2sc(-c3ccc(-c4ccccc4)c(C(F)(F)F)c3)cc2c1", "note": "[AUY954]", "values": [{"measurement": "prolonging allograft survival", "setting": "[2]; combination with a subtherapeutic dose of RAD001", "result": "can prolong rat cardiac allograft survival"}]}
{"molecule": "CC(C)Oc1ccc(COc2ccc3c(c2)c(Cl)c2n3CC[C@@H]2CC(=O)O)cc1C(F)(F)F.NCCN.O", "note": "[(R)-2-(9-chloro-7-(4-isopropoxy-3-(trifluoromethyl)benzyloxy)-2,3-dihydro-1H-pyrrolo[1,2-a]indol-1-yl)acetic acid ethylenediamine salt hydrate]", "values": [{"measurement": "DMS weight gain after adsorption cycle to about 90% RH followed by desorption cycle back to about 10% RH", "setting": "[4]", "result": "25° C.; gains less than about 1.5% weight after undergoing"}]}
{"molecule": "FC(F)(F)c1cccc(-c2noc(-c3cc(-c4ccccc4)c(C(F)(F)F)s3)n2)c1", "note": "[SEW2871]", "values": [{"measurement": "proinflammatory monocyte/endothelial interactions", "setting": "[5]", "result": "prevents proinflammatory monocyte/endothelial interactions"}, {"measurement": "protection against TNFα-mediated monocyte/endothelial interactions", "setting": "vasculature", "result": "protects the vasculature against TNFα-mediated monocyte/endothelial interactions"}]}
{"molecule": "(R)-2-(9-Chloro-7-(4-isopropoxy-3-(trifluoromethyl)benzyloxy)-2,3-dihydro-1H-pyrrolo[1,2-a]indol-1-yl)acetic acid L-lysine salt", "values": [{"measurement": "peripheral blood lymphocyte (PBL) lowering (lymphopenia)", "setting": "Male BALB/c mice", "result": "exhibited activity for inducing PBL lowering (lymphopenia)"}, {"measurement": "reduction of the severity of disease symptoms (clinical score) in EAE", "setting": "Female C57BL/6 mice", "result": "exhibits therapeutic efficacy in EAE"}, {"measurement": "DMS weight gain at a 90% RH hold", "setting": "[4]; 90% RH hold at 25° C.", "result": "FIG. 6: gains less than about 2.2% weight at a 90% RH hold at"}, {"measurement": "DMS weight gain after adsorption cycle to about 90% RH followed by desorption cycle back to about 10% RH", "setting": "[4]", "result": "25° C.; gains less than about 0.25% weight after undergoing a"}]}
{"molecule": "CCCCCCCCc1ccc(CCC(N)(CO)COP(=O)(O)O)cc1", "note": "(centres unmarked) [phosphorylated derivative]", "values": [{"measurement": "agonist activity on S1P4 receptor", "setting": "S1P4 receptor", "result": "agonist"}, {"measurement": "agonist activity on S1P5 receptor", "setting": "S1P5 receptor", "result": "agonist"}, {"measurement": "agonist activity on S1P2 receptor", "setting": "S1P2 receptor", "result": "not the S1P2 receptor"}]}
{"molecule": "CCCCCCCCCCCCC/C=C/[C@@H](O)[C@@H](N)COP(=O)(O)O", "note": "[Compound S1P, sphingosine-1-phosphate]", "values": [{"measurement": "keratinocyte proliferation", "setting": "keratinocytes", "result": "inhibits keratinocyte proliferation"}]}
{"molecule": "CCCCCCCCc1ccc(CCC(N)(CO)CO)cc1", "note": "[FTY720, fingolimod]", "values": [{"measurement": "adverse event in clinical trials", "setting": "[6]", "result": "transient asymptomatic bradycardia"}, {"measurement": "general immunosuppression while prolonging graft survival", "setting": "[7]", "result": "without inducing general immunosuppression"}, {"measurement": "effects on human islet function", "setting": "human islet cells", "result": "no detrimental effects on human islet function"}]}
{"molecule": "C=CC[C@@H]1/C=C(\\C)C[C@H](C)C[C@H](OC)[C@H]2O[C@@](O)(C(=O)C(=O)N3CCCC[C@H]3C(=O)O[C@H](/C(C)=C/[C@@H]3CC[C@@H](O)[C@H](OC)C3)[C@H](C)[C@@H](O)CC1=O)[C@H](C)C[C@@H]2OC", "note": "[FK506]", "values": [{"measurement": "undesirable side effects", "setting": "[8]", "result": "nephrotoxicity, neurotoxicity, β-cell toxicity and gastrointestinal discomfort"}]}
